Results taken from US12012410B2, “Substituted pyrazolo[1,5-a]pyrazines for spinal muscular atrophy” (REBORNA BIOSCIENCES, INC., priority 2018, dated 2024).

System: FL-SMN mRNA (SMN transcript containing exons 7 and 8)
Assay: Live-cell assay to measure changes in FL-SMN mRNA levels (qPCR) after exposure to the compounds
Type: cell-based, human
Details: fibroblasts derived from patients SMA (GM03813); 24 hours incubation
Method in brief: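 SMA patient fibroblasts (GM03813) in DMEM/10% FBS were treated with compound (0.1% DMSO final) for 24 h. FL-SMN and Δ7 mRNA were measured by RT-qPCR against oligo DNA standard curves and normalised to GAPDH. Values are % of the DMSO control, binned by asterisk from ≥100% to ≥180%.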

Row | Compound | Percentage of increase (FL-SMN mRNA standardized against GAPDH, DMSO control set as 100%)
1 | Cc1cn2nc(-c3nc4ccc(N5CCN(C6CC6)CC5)cc4c(=O)[nH]3)ccc2n1 [Example 118, 6-(4-cyclopropylpiperazin-1-yl)-2-(2-methylimidazo[1,2-b]pyridazin-6-yl)quinazolin-4(3H)-one] | *** (equal to or higher than 150% but lower than 180%)
2 | Cc1cn2nc(-c3nc4ccc(N5CCN(C(C)C)CC5)cc4c(=O)[nH]3)cc2c(C)n1 [Example 119, 2-(4,6-dimethylpyrazolo[1,5-a]pyrazin-2-yl)-6-(4-isopropylpiperazin-1-yl)quinazolin-4(3H)-one bistrifluoroacetate] | **** (equal to or higher than 180%)
3 | Cc1cn2nc(-c3nc4ccc(N5CCN(CC6CC6)CC5)cc4c(=O)[nH]3)cc2c(C)n1 [Example 120, 6-[4-(cyclopropyImethyl)piperazin-1-yl]-2-(4,6-dimethylpyrazolo[1,5-a]pyrazin-2-yl)quinazolin-4(3H)-one bistrifluoroacetate] | **** (equal to or higher than 180%)
4 | Cc1cn2nc(-c3nc4ccc(N5CCN6CCC[C@H]6C5)cc4c(=O)[nH]3)cc2c(C)n1 [Example 121, (S)-2-(4,6-dimethylpyrazolo[1,5-a]pyrazin-2-yl)-6-(hexahydropyrrolo[1,2-a]pyrazin-2(1H)-yl)quinazolin-4(3H)-one bistrifluoroacetate] | **** (equal to or higher than 180%)
5 | Cc1cn2nc(-c3nc4ccc(N5CCNC(C)(C)C5)cc4c(=O)[nH]3)cc2c(C)n1 [Example 122, 6-(3,3-Dimethylpiperazin-1-yl)-2-(4,6-dimethylpyrazolo[1,5-a]pyrazin-2-yl)quinazolin-4(3H)-one bistrifluoroacetate] | **** (equal to or higher than 180%)
6 | Cc1cn2nc(-c3nc4ccc(N5CCNC6(CC6)C5)cc4c(=O)[nH]3)cc2c(C)n1 [Example 123, 2-(4,6-dimethylpyrazolo[1,5-a]pyrazin-2-yl)-6-(4,7-diazaspiro[2.5Joctan-7-yl)quinazolin-4(3H)-one bistrifluoroacetate] | **** (equal to or higher than 180%)
7 | Cc1cn2nc(-c3nc4ccc(N5CCN6CCCCC6C5)cc4c(=O)[nH]3)cc2c(C)n1 (stereo not drawn) [Example 124, 2-(4,6-dimethylpyrazolo[1,5-a]pyrazin-2-yl)-6-(octahydro-2H-pyrido[1,2-a]pyrazin-2-yl)quinazolin-4(3H)-one] | *** (equal to or higher than 150% but lower than 180%)
8 | Cc1cn2nc(-c3nc4ccc(N5CCN6CCCCC6C5)cc4c(=O)[nH]3)cc2c(C)n1 (stereo not drawn) [Example 125, 2-(4,6-dimethylpyrazolo[1,5-a]pyrazin-2-yl)-6-(octahydro-2H-pyrido[1,2-a]pyrazin-2-yl)quinazolin-4(3H)-one (distomer)] | ** (equal to or higher than 120% but lower than 150%)
9 | Cc1cn2nc(-c3nc4ccc(N5CCN6CCC[C@@H]6C5)cc4c(=O)[nH]3)cc2c(C)n1 [Example 126, (R)-2-(4,6-dimethylpyrazolo[1,5-a]pyrazin-2-yl)-6-(hexahydropyrrolo[1,2-a]pyrazin-2(1H)-yl)quinazolin-4(3H)-one] | **** (equal to or higher than 180%)
10 | Cc1cn2nc(-c3nc4ccc(N5CCN(C)C[C@@H]5C)cc4c(=O)[nH]3)cc2c(C)n1 [Example 127, (S8)-6-(2,4-simethylpiperazin-1-yl)-2-(4,6-dimethylpyrazolo[1,5-a]pyrazin-2-yl)quinazolin-4(3H)-one] | *** (equal to or higher than 150% but lower than 180%)
11 | Cc1cn2nc(-c3nc4ccc(N5CCN(C)C[C@H]5C)cc4c(=O)[nH]3)cc2c(C)n1 [Example 128, (R)-6-(2,4-simethylpiperazin-1-yl)-2-(4,6-dimethylpyrazolo[1,5-a]pyrazin-2-yl)quinazolin-4(3H)-one] | **** (equal to or higher than 180%)
12 | CC[C@H]1CN(C)CCN1c1ccc2nc(-c3cc4c(C)nc(C)cn4n3)[nH]c(=O)c2c1 [Example 129, (S)-2-(4,6-dimethylpyrazolo[1,5-a]pyrazin-2-yl)-6-(2-ethyl-4-methylpiperazin-1-yl)quinazolin-4(3H)-one] | *** (equal to or higher than 150% but lower than 180%)
13 | CCN1CCN(c2ccc3nc(-c4cc5c(C)nc(C)cn5n4)[nH]c(=O)c3c2)[C@@H](C)C1 [Example 130, (S)-2-(4,6-dimethylpyrazolo[1,5-a]pyrazin-2-yl)-6-(4-ethyl-2-methylpiperazin-1-yl)quinazolin-4(3H)-one] | *** (equal to or higher than 150% but lower than 180%)
14 | CCN1CCN(c2ccc3nc(-c4cc5c(C)nc(C)cn5n4)[nH]c(=O)c3c2)[C@H](C)C1 [Example 131, (R)-2-(4,6-dimethylpyrazolo[1,5-a]pyrazin-2-yl)-6-(4-ethyl-2-methylpiperazin-1-yl)quinazolin-4(3H)-one] | *** (equal to or higher than 150% but lower than 180%)
15 | CC[C@@H]1CN(C)CCN1c1ccc2nc(-c3cc4c(C)nc(C)cn4n3)[nH]c(=O)c2c1 [Example 132, (R)-2-(4,6-dimethylpyrazolo[1,5-a]pyrazin-2-yl)-6-(2-ethyl-4-methylpiperazin-1-yl)quinazolin-4(3H4)-one] | *** (equal to or higher than 150% but lower than 180%)
